Test results as given in patent US9670194B2 (Calitor Sciences, LLC, priority 2013, dated 2017).
Read-outs that look alike come from different tables or passages of the source.

Columns and labels:
[1] = Compound stability in human liver microsomes; format: in vitro ADME; conditions: for half-life at 5 μM: human liver microsomes 0.5 mg protein/mL, compound 5 μM, NADPH 1.0 mM, 37° C.; for CLint scaled at 5 μM: human liver microsomes, in vivo CLint extrapolated
[2] = Compound stability in rat liver microsomes; format: in vitro ADME; conditions: pH 7.4; for half-life at 5 μM: rat liver microsomes 0.5 mg protein/mL, compound 5 μM, NADPH 1.0 mM, 37° C.; for CLint scaled at 5 μM: rat liver microsomes, in vivo CLint extrapolated
[3] = Pharmacokinetics after intravenous and oral administration in rats; format: in vivo, rat; conditions: for bioavailability / AUC(0-t) / half-life / Vd: rat, plasma; for bioavailability: oral dose generally 5 or 10 mg/kg; for Vd: read-out: Vss

half-life at 5 μM [1] | CLint scaled at 5 μM [1] | half-life at 5 μM [2] | CLint scaled at 5 μM [2] | clearance (CL) ([3]; iv dosing, dose 1 mg/kg) | bioavailability ([3]; iv dose 1 mg/kg) | AUC(0-t) ([3]; iv dosing, dose 1 mg/kg) | half-life ([3]; iv dosing, dose 1 mg/kg) | Vd ([3]; iv dosing, dose 1 mg/kg) | clearance (CL) ([3]; iv dosing, dose 0.48 mg/kg) | bioavailability ([3]; iv dose 0.48 mg/kg) | AUC(0-t) ([3]; iv dosing, dose 0.48 mg/kg) | half-life ([3]; iv dosing, dose 0.48 mg/kg) | Vd ([3]; iv dosing, dose 0.48 mg/kg) | clearance (CL) ([3]; iv dosing, dose 0.5 mg/kg) | bioavailability ([3]; iv dose 0.5 mg/kg) | AUC(0-t) ([3]; iv dosing, dose 0.5 mg/kg) | half-life ([3]; iv dosing, dose 0.5 mg/kg) | Vd ([3]; iv dosing, dose 0.5 mg/kg) | CL/F ([3]; iv dosing, dose 1 mg/kg) | Structure (SMILES)
42.4 min | 41 mL/min/kg | 25.3 min | 98.2 mL/min/kg | 82 mL/min/kg | 33% | 203 ng·h/mL | 54.6 min | 5.15 L/kg | – | – | – | – | – | – | – | – | – | – | – | C[C@H](Nc1ncnc(N)c1-c1nnn(C)n1)c1nc2cccc(Cl)c2c(=O)n1C1CC1 [Ex. 42, (S)-2-(1-((6-amino-5-(2-methyl-2H-tetrazol-5-yl)pyrimidin-4-yl)amino)ethyl)-5-chloro-3-cyclopropylquinazolin-4(3H)-one]
61.8 min | 28.1 mL/min/kg | 122 min | 20.4 mL/min/kg | 26.2 mL/min/kg | 106% | 580 ng·h/mL | 143 min | 5.03 L/kg | – | – | – | – | – | – | – | – | – | – | – | CC[C@H](Nc1ncnc(N)c1-c1nc(C(N)=O)n(C)n1)c1nc2cccc(Cl)c2c(=O)n1C1CC1 [Ex. 58, (S)-3-(4-amino-6-((1-(5-chloro-3-cyclopropyl-4-oxo-3,4-dihydroquinazolin-2-yl)propyl)amino)pyrimidin-5-yl)-1-methyl-1H-1,2,4-triazole-5-carboxamide]
44.7 min | 38.9 mL/min/kg | 6.55 min | 379 mL/min/kg | 72.5 mL/min/kg | 11.4% | 232 ng·h/mL | 68.4 min | 6.92 L/kg | – | – | – | – | – | – | – | – | – | – | – | CC[C@H](Nc1ncnc(N)c1-c1noc(C)n1)c1nc2cccc(Cl)c2c(=O)n1-c1ccccc1 [Ex. 13, (S)-2-(1-((6-amino-5-(5-methyl-1,2,4-oxadiazol-3-yl)pyrimidin-4-yl)amino)-propyl)-5-chloro-3-phenylquinazolin-4(3H)-one]
5.52 min | 315 mL/min/kg | 5.98 min | 416 mL/min/kg | 59.5 mL/min/kg | 30.4% | 276 ng·h/mL | 91.2 min | 11.9 L/kg | – | – | – | – | – | – | – | – | – | – | – | CC[C@H](Nc1ncnc(N)c1C1=N[C@@H](C)CO1)c1nc2cccc(Cl)c2c(=O)n1C1CC1 [Ex. 5, 2-((S)-1-((6-amino-5-((S)-4-methyl-4,5-dihydrooxazol-2-yl)pyrimidin-4-yl)amino)propyl)-5-chloro-3-cyclopropylquinazolin-4(3H)-one]
17.1 min | 146 mL/min/kg | 5.42 min | 458 mL/min/kg | – | – | – | – | – | 70.5 mL/min/kg | 69.1% | 121 ng·h/mL | 30.6 min | 2.31 L/kg | – | – | – | – | – | – | CC[C@H](Nc1ncnc(N)c1-c1nnc(C)o1)c1nc2ccccc2c(=O)n1-c1ccccc1F [Ex. 24, (S)-2-(1-((6-amino-5-(5-methyl-1,3,4-oxadiazol-2-yl)pyrimidin-4-yl)amino)-propyl)-3-(2-fluorophenyl)quinazolin-4(3H)-one]
11.4 min | 152 mL/min/kg | 13.3 min | 186 mL/min/kg | 86.7 mL/min/kg | 28.3% | 192 ng·h/mL | 68.4 min | 3.96 L/kg | – | – | – | – | – | – | – | – | – | – | – | CC[C@H](Nc1ncnc(N)c1-c1ncn(C)n1)c1nc2cccc(Cl)c2c(=O)n1-c1ccc(F)cc1 [Ex. 50, (S)-2-(1-((6-amino-5-(1-methyl-1H-1,2,4-triazol-3-yl)pyrimidin-4-yl)amino)propyl)-5-chloro-3-(4-fluorophenyl)quinazolin-4(3H)-one]
37.9 min | 45.9 mL/min/kg | 8.87 min | 280 mL/min/kg | – | – | – | – | – | – | – | – | – | – | 53 mL/min/kg | 41.8% | 157 ng·h/mL | 67.8 min | 3.46 L/kg | – | CC[C@H](Nc1ncnc(N)c1-c1nnc(C)o1)c1nc2cccc(Cl)c2c(=O)n1-c1ccccc1C [Ex. 35, (S)-2-(1-((6-amino-5-(5-methyl-1,3,4-oxadiazol-2-yl)pyrimidin-4-yl)-amino)propyl)-5-chloro-3-(o-tolyl)quinazolin-4(3H)-one]
160 min | 10.9 mL/min/kg | 56.8 min | 43.8 mL/min/kg | 27.3 mL/min/kg | 158% | 608 ng·h/mL | 78 min | 2.12 L/kg | – | – | – | – | – | – | – | – | – | – | – | CC[C@H](Nc1ncnc(N)c1-c1ncnn1C)c1nc2cccc(Cl)c2c(=O)n1C1CC1 [Ex. 9, 2-((1S)-1-((6-amino-5-(1-methyl-1H-1,2,4-triazol-5-yl)pyrimidin-4-yl)amino)-propyl)-5-chloro-3-cyclopropylquinazolin-4(3H)-one]
6.1 min | 285 mL/min/kg | 3.86 min | 644 mL/min/kg | 55.8 mL/min/kg | 20.2% | 300 ng·h/mL | 42.6 min | 3.65 L/kg | – | – | – | – | – | – | – | – | – | – | – | CC[C@H](Nc1ncnc(N)c1-c1nc(COC)n(C)n1)c1nc2cccc(Cl)c2c(=O)n1C1CC1 [Ex. 46, (S)-2-(1-((6-amino-5-(5-(methoxymethyl)-1-methyl-1H-1,2,4-triazol-3-yl)pyrimidin-4-yl)amino)propyl)-5-chloro-3-cyclopropylquinazolin-4(3H)-one]
27.1 min | 91.6 mL/min/kg | 7.63 min | 325 mL/min/kg | 6100 mL/min/kg | 23.6% | 271 ng·h/mL | 56.4 min | 3.16 L/kg | – | – | – | – | – | – | – | – | – | – | – | CC[C@H](Nc1ncnc(N)c1-c1ccon1)c1nc2cccc(C)c2c(=O)n1C1CC1 [Ex. 47, (S)-2-(1-((6-amino-5-(isoxazol-3-yl)pyrimidin-4-yl)amino)propyl)-3-cyclopropyl-5-methylquinazolin-4(3H)-one]
1.92 min | 1290 mL/min/kg | 1.92 min | 1300 mL/min/kg | 130 mL/min/kg | 4.56% | 247 ng·h/mL | 122 min | 13.2 L/kg | – | – | – | – | – | – | – | – | – | – | – | CC[C@H](Nc1ncnc(N)c1-c1nc(C)co1)c1nc2cccc(C)c2c(=O)n1-c1ccccc1C [Ex. 29, (S)-2-(1-((6-amino-5-(4-methyloxazol-2-yl)pyrimidin-4-yl)amino)propyl)-5-methyl-3-(o-tolyl)quinazolin-4(3H)-one]
10.7 min | 162 mL/min/kg | 9 min | 276 mL/min/kg | 61.8 mL/min/kg | 70.2% | 278 ng·h/mL | 58.2 min | 4.61 L/kg | – | – | – | – | – | – | – | – | – | – | – | CC[C@H](Nc1ncnc(N)c1-c1ncn(C)n1)c1nc2cccc(Cl)c2c(=O)n1-c1ccccc1F [Ex. 45, (S)-2-(1-((6-amino-5-(1-methyl-1H-1,2,4-triazol-3-yl)pyrimidin-4-yl)amino)-propyl)-5-chloro-3-(2-fluorophenyl)quinazolin-4(3H)-one]
7.72 min | 322 mL/min/kg | 6.71 min | 370 mL/min/kg | 85.7 mL/min/kg | 21.3% | 194 ng·h/mL | 73.2 min | 6.07 L/kg | – | – | – | – | – | – | – | – | – | – | – | CC[C@H](Nc1ncnc(N)c1-c1nc(C)co1)c1nc2cccc(Cl)c2c(=O)n1C1CC1 [Ex. 52, (S)-2-(1-((6-amino-5-(4-methyloxazol-2-yl)pyrimidin-4-yl)amino)propyl)-5-chloro-3-cyclopropylquinazolin-4(3H)-one]
19.6 min | 126 mL/min/kg | 20 min | 124 mL/min/kg | – | 40.5% | 393 ng·h/mL | 158 min | 6.07 L/kg | – | – | – | – | – | – | – | – | – | – | 40.3 mL/min/kg | CC[C@H](Nc1ncnc(N)c1-c1noc(C)n1)c1nc2cccc(C)c2c(=O)n1C1CC1
136 min | 12.8 mL/min/kg | 27 min | 91.8 mL/min/kg | 67.3 mL/min/kg | 32.7% | 254 ng·h/mL | 40.8 min | 2.42 L/kg | – | – | – | – | – | – | – | – | – | – | – | CC[C@H](Nc1ncnc(N)c1-c1ccon1)c1nc2cccc(F)c2c(=O)n1C1CC1 [Ex. 48, (S)-2-(1-((6-amino-5-(isoxazol-3-yl)pyrimidin-4-yl)amino)propyl)-3-cyclopropyl-5-fluoroquinazolin-4(3H)-one]
42.8 min | 40.6 mL/min/kg | 99.1 min | 25.1 mL/min/kg | – | – | – | – | – | – | – | – | – | – | – | – | – | – | – | – | CC[C@H](Nc1ncnc(N)c1-c1nnn(C)n1)c1nc2cccc(Cl)c2c(=O)n1C1CC1 [Ex. 54, (S)-2-(1-((6-amino-5-(2-methyl-2H-tetrazol-5-yl)pyrimidin-4-yl)amino)-propyl)-5-chloro-3-cyclopropylquinazolin-4(3H)-one]
14.3 min | 122 mL/min/kg | 14.6 min | 170 mL/min/kg | – | – | – | – | – | – | – | – | – | – | – | – | – | – | – | – | CC[C@H](Nc1ncnc(N)c1-c1nnn(C)n1)c1nc2cccc(Cl)c2c(=O)n1-c1cccc(F)c1 [Ex. 36, (S)-2-(1-((6-amino-5-(2-methyl-2H-tetrazol-5-yl)pyrimidin-4-yl)amino)propyl)-5-chloro-3-(3-fluorophenyl)quinazolin-4(3H)-one]
